These results are taken from patent publication US20250177359A1, “COMPOUNDS FOR USE IN THE TREATMENT OF CANCER AND INFLAMMATORY CONDITIONS” (priority 2022, published 2025).

The assay has as its target T1, PARP10 (Homo sapiens, UniProt Q53GL7).
T1 construct: made in house
T1 sequence (Q53GL7 1-1025): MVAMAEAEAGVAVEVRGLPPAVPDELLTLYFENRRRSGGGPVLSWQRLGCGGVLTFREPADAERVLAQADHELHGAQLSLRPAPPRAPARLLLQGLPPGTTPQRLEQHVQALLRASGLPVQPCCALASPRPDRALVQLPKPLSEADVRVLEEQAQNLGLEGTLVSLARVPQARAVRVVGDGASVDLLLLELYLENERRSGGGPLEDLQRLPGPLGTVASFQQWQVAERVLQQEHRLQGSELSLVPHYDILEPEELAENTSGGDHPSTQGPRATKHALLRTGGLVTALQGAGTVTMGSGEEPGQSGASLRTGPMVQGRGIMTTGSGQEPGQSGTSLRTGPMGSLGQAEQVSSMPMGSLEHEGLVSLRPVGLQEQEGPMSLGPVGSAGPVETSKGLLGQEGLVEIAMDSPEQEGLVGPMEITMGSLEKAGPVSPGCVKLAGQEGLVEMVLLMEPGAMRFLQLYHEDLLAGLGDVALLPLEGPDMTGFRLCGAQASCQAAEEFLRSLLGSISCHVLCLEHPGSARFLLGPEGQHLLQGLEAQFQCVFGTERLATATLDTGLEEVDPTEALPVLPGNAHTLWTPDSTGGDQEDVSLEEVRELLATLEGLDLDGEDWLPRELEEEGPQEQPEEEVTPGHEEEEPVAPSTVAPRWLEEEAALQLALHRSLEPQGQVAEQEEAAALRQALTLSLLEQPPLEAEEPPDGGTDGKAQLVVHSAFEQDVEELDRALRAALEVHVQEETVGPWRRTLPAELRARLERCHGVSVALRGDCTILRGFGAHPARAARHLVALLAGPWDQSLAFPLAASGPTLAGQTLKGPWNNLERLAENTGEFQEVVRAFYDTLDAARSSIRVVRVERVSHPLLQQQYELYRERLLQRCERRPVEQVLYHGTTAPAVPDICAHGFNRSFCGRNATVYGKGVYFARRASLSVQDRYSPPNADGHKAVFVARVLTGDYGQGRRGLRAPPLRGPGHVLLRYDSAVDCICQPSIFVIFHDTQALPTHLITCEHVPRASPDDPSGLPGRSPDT
Briefly: Activity assay measuring NAD+ consumption, PARP10 (Tables 1-3). As to conditions: PARP10 IC50, Tables 1-3 assay. It counts as biochemical.

What is called IC50 is the concentration that gives 50% inhibition. Lower therefore signals inhibition by little substance. The compound `Nc1nnc2sc3cc(O)ccc3n12` [Compound 109, 3-Amino[1,2,4]triazolo[3,4-b][1,3]benzothiazol-7-ol] gave an IC50 of 220 nM.
